In patent US11591342B2, “Heterocyclic compound, application thereof and pharmaceutical composition comprising same” (SUZHOU SINOVENT PHARMACEUTICALS CO., LTD., priority 2018, dated 2023):

Key:
Autotaxin (ATX) = Autotaxin (ATX) (Homo sapiens (Human), UniProt Q13822); test: ATX bioactivity assay (Amplex Red / choline oxidase / HRP fluorescence, LPC 16:0 substrate); format: biochemical; details: 30 min room temperature
Method: Effect Example 1 Bioactivity Assay
Preparation and Treatment
Stock Solution Preparation
A 10 mM DMSO stock solution was formulated for each compound. A 30 mM DMSO stock solution was formulated for positive control HA130.
The DMSO stock solutions were stored at room temperature in a desiccator for a short period of time or at −20° C. for a long period of time.
All compounds were serially 3-fold diluted in DMSO from 10 μM to the 10th concentration.
A 1000× positive control (10 mM, HA130) and a 1000× negative control (100% DMSO) were prepared.
The plates were shaken for 5 min.
Preparation of 1× Reaction Buffer:
5× reaction buffer and cold water were mixed well in a volume ratio of 1:4.
Preparation of 20 U/mL Choline Oxidase Stock Solution:
1 tube of choline oxide in a kit was dissolved in 1× reaction buffer. The aliquots were frozen at −20° C.
Preparation of 200 U/mL Horseradish Peroxidase (HRP) Stock Solution:
1 tube of HRP in a kit was dissolved in 1 mL of 1× reaction buffer. The aliquots were frozen at −20° C.
Preparation of 20 mM Amplex® Red Reagent (for Detection) Stock Solution
Amplex Red reagent and DMSO were equilibrated at room temperature. 1 tube of Amplex Red reagent in a kit was dissolved in 200 μL of DMSO.
a) 2×ATX ([…]), 2×HRP ([…]), 2× choline oxidase (0.2 U/mL) were added to 1× reaction buffer.
b) 20 μL of the reaction mixture was added to the plate (PE, 6007270) (refer to step a).
c) 40 nL of diluent was added to the plate using Echo (refer to “Preparation”).
d) 2×LPC (16:0) (60 mM) and 2× Amplex® Red ([…]) were prepared using 1× reaction buffer.
e) 20 μL of the mixture was added to the plate (refer to step d).
f) The plate was shaken for 30 s and allowed to stand at room temperature for 30 min.
g) The plate was examined using Envision, and the procedure was as follows: Excitation at 530 nm; and Emission at 590 nm.
Formula for Calculating % Inhibition (Percent Inhibition Rate) as Follows:
FLU: Fluorescence (fluorescence reading)
FLUpositive: Average fluorescence value in positive control wells (10 μM HA130) in the plate.
FLUvehicle: Average fluorescence value in negative control wells (0.1% DMSO) in the plate.
Calculation of IC50 and Dose-Response Curve:
IC50 of the compounds was calculated via a non-linear regression line (dose-variable slope) fitted using % inhibition and log of compound concentration. The software used was Graphpad 5.0. Y=Bottom+(Top−Bottom)/(1+10^((Log IC50−X)×Hill Slope))
X: log of inhibitor concentration

CYP3A4 = CYP3A4 (Homo sapiens (Human), UniProt P08684); test: Time-dependent inhibition of CYP3A4 (TDI assay, human liver microsomes); format: in vitro ADME; details: for CYP3A4 TDI % @ 10 μM: human liver microsomes, Midazolam substrate, 30 min with NADPH vs 0 min; for time-dependent inhibition on CYP3A4 (conclusion): conclusion drawn from Table 3, 10 μM
Sequence of CYP3A4 (P08684 whole entry): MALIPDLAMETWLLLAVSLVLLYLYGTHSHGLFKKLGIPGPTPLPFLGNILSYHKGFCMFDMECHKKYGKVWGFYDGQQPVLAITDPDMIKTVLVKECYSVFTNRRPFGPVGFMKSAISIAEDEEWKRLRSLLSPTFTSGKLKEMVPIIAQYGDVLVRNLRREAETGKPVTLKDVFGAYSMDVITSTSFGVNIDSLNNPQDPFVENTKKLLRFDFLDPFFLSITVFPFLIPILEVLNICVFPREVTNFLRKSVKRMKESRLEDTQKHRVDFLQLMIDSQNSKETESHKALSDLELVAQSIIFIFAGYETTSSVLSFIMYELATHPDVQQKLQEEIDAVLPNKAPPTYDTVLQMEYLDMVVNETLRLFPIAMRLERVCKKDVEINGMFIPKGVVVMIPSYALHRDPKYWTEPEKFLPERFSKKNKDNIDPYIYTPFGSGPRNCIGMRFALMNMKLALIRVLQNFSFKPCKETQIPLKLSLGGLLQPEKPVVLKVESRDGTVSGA
Method: Effect Example 3. Time-Dependent Inhibition of CYP3A4
1. Preheating potassium phosphate buffer (K-buffer), pH 7.4: 100 mM potassium phosphate buffer (K-buffer) was prepared by mixing 9.5 mL of solution A with 40.5 mL of solution B, diluting to 500 mL with ultrapure water, and then adjusting to pH 7.4 with KOH or H3PO4, wherein the solution A (1M potassium dihydrogenphosphate) was prepared by dissolving 136.5 g of potassium dihydrogenphosphate in […] of ultrapure water.
2. Preparation of human liver microsome suspension (1.3 mg/mL, 1.3×, stock: 20 mg/mL): 100 μL of human liver microsome suspension (20 mg/mL) was added into […] of K-buffer.
3. Preparation of NADPH solution (4.167 mg/mL, 5 mM): 8.3 mg of NADPH was added into 2 mL of buffer.
4. Preparation of substrate solution (1.5× final): 1.5 μL of 10 mM Midazolam was added to 998.5 μL of K-buffer to yield the substrate mixture.
5. Preparation of 100× test compound, reference and blank control solutions: 3 μL of 10 mM stock solution of test compound was added to 27 μL of ACN; 3 μL of positive control stock solution was added to 27 μL of ACN; and 3 μL of DMSO was added to 27 μL of ACN to serve as blank control.
6. Primary preheating system: An NADPH-free system for 0 min incubation: 78 μL of 1.3× human liver microsome solution (step 2) was mixed with 1 μL of the 100× stock solutions of positive control, test compound, or blank control (step 5); A system containing NADPH for 30 min incubation: 78 μL of 1.3× human liver microsome solution (step 2) was mixed with 1 μL of the 100× stock solutions of positive control, test compound, or blank control (step 5).
7. Secondary preheating system: 150 μL of the substrate solution prepared in step 4 was added into a deep well plate together with the NADPH solution from step 3
8. The samples were preheated for 10 min in a 37° C. water bath.
9. Reaction procedure: (1) reaction for 0 min: 21 μL of K-buffer was added to the primary preheating system and mixed well without incubation; 20 μL of the mixture was immediately transferred into the plate of the secondary preheating system; after mixing, the secondary system was incubated in a 37° C. water bath for 15 min, and 60 μL of the reaction mixture was added into 120 μL of acetonitrile containing internal standard to terminate the reaction; and (2) reaction for 30 min: 21 μL of NADPH was added into the primary preheating system for a 30-min incubation after mixing; 20 μL of the mixture was added into the secondary preheating system prior to mixing; the mixture was incubated in a 37° C. water bath for 15 min, and 60 μL of the reaction mixture was added into 120 μL of acetonitrile containing internal standard to terminate the reaction.
10. After termination, the samples were shaken on a shaker at 600 rpm for 10 min and centrifuged at 5594 g for 15 min prior to LC-MS/MS analysis.

Structure (SMILES)	IC50 (Autotaxin (ATX)) [µM]	CYP3A4 TDI % @ 10 μM (CYP3A4) [%]	time-dependent inhibition on CYP3A4 (conclusion) (CYP3A4)
CCn1nc2c(F)cc(N3CCN(CC(=O)N4CC(O)C4)CC3)cc2c1N(C)c1ccc(C#N)c(-c2ccc(F)cc2)n1 [Compound S-0030, 6-((2-ethyl-7-fluoro-5-(4-(2-(3-hydroxyazetidin-1-yl)-2-oxoethyl)piperazin-1-yl)-2H-indazol-3-yl)(methyl)amino)-2-(4-fluorophenyl)nicotinonitrile]	0.407		
CCc1nn2ccc(N3CCN(CC(=O)N4CC(O)C4)CC3)cc2c1N(C)c1nc(-c2ccc(F)cc2)c(C#N)s1 [Compound S-0040, 2-((2-ethyl-5-(4-(2-(3-hydroxyazetidin-1-yl)-2-oxoethyl)piperazin-1-yl)pyrazolo[1,5-a]pyridin-3-yl)(methyl)amino)-4-(4-fluorophenyl)thiazole-5-carbonitrile]	0.767		
CCc1nn2ccc(N3CCN(CC(=O)N4CC(O)C4)CC3)nc2c1N(C)c1nc(-c2ccc(F)cc2)c(C#N)s1 [Compound S-0041, 2-((2-ethyl-5-(4-(2-(3-hydroxyazetidin-1-yl)-2-oxoethyl)piperazin-1-yl)pyrazolo[1,5-a]pyrimidin-3-yl)(methyl)amino)-4-(4-fluorophenyl)thiazole-5-carbonitrile]		−4.00	no time-dependent inhibition on CYP3A4
CCn1nc2ncc(N3CCN(CC(=O)N4CC(O)C4)CC3)cc2c1N(C)c1nc(-c2ccc(F)cc2)c(C#N)s1 [Compound S-0043, 2-((2-ethyl-5-(4-(2-(3-hydroxyazetidin-1-yl)-2-oxoethyl)piperazin-1-yl)-2H-pyrazolo[3,4-b]pyridin-3-yl)(methyl)amino)-4-(4-fluorophenyl)thiazole-5-carbonitrile]		12.38	no time-dependent inhibition on CYP3A4
CCn1nc2cnc(N3CCN(CC(=O)N4CC(O)C4)CC3)cc2c1N(C)c1nc(-c2ccc(F)cc2)c(C#N)s1 [Compound S-0044, 2-((2-ethyl-5-(4-(2-(3-hydroxyazetidin-1-yl)-2-oxoethyl)piperazin-1-yl)-2H-pyrazolo[3,4-c]pyridin-3-yl)(methyl)amino)-4-(4-fluorophenyl) thiazole-5-carbonitrile]		15.3	no time-dependent inhibition on CYP3A4
CCc1nn2c(C)cc(N3CCN(CC(=O)N4CC(O)C4)CC3)nc2c1N(C)c1nc(-c2ccc(F)c(F)c2)c(C#N)s1 [Compound S-0068, 4-(3,4-difluorophenyl)-2-((2-ethyl-5-(4-(2-(3-hydroxyazetidin-1-yl)-2-oxoethyl)piperazin-1-yl)-7-methylpyrazolo[1,5-a]pyrimidin-3-yl)(methyl)amino) thiazole-5-carbonitrile]	0.107		
CCc1nn2c(C)cc(N3CCN(CC(=O)N4CC(O)C4)CC3)nc2c1N(CC)c1nc(-c2ccc(F)cc2)c(C#N)s1 [Compound S-0069, 2-(ethyl(2-ethyl-5-(4-(2-(3-hydroxyazetidin-1-yl)-2-oxoethyl)piperazine-1-yl)-7-methylpyrazolo[1,5-a]pyrimidin-3-yl)amino)-4-(4-fluorophenyl) thiazole-5-carbonitrile]	0.043		
CCc1nn2c(C)cc(N3CCN(CC(=O)N4CC(O)C4)C[C@H]3C)nc2c1N(C)c1nc(-c2ccc(F)cc2)c(C#N)s1 [Compound S-0070, (R)-2-((2-ethyl-5-(4-(2-(3-hydroxyazetidin-1-yl)-2-oxoethyl)-2-methylpiperazine-1-yl)-7-methylpyrazolo[1,5-a]pyrimidin-3-yl)(methyl)amino)-4-(4-fluorophenyl)thiazole-5-carbonitrile]	0.036		
CCc1nn2c(C)cc(N3CCN(CC(=O)N4CC(O)C4)C[C@@H]3C)nc2c1N(C)c1nc(-c2ccc(F)cc2)c(C#N)s1 [Compound S-0071, (S)-2-((2-ethyl-5-(4-(2-(3-hydroxyazetidin-1-yl)-2-oxoethyl)-2-methylpiperazin-1-yl)-7-methylpyrazolo[1,5-a]pyrimidin-3-yl)(methyl)amino)-4-(4-fluorophenyl)thiazole-5-carbonitrile]	0.046		
CCc1nn2c(C)cc(N3CCN(CC(=O)N4CC(O)C4)[C@H](C)C3)nc2c1N(C)c1nc(-c2ccc(F)cc2)c(C#N)s1 [Compound S-0074, (R)-2-((2-ethyl-5-(4-(2-(3-hydroxyazetidin-1-yl)-2-oxoethyl)-3-methylpiperazin-1-yl)-7-methylpyrazolo[1,5-a]pyrimidin-3-yl)(methyl)amino)-4-(4-fluorophenyl)thiazole-5-carbonitrile]	0.207		
CCc1nn2c(C)cc(N3CCN(CC(=O)N4CC(O)C4)[C@@H](C)C3)nc2c1N(C)c1nc(-c2ccc(F)cc2)c(C#N)s1 [Compound S-0075, (S)-2-((2-ethyl-5-(4-(2-(3-hydroxyazetidin-1-yl)-2-oxoethyl)-3-methylpiperazin-1-yl)-7-methylpyrazolo[1,5-a]pyrimidin-3-yl)(methyl)amino)-4-(4-fluorophenyl)thiazole-5-carbonitrile]	0.088		
CCc1nn2ccc(N3CCN(CC(=O)N4CC(O)C4)CC3)nc2c1N(CC)c1nc(-c2ccc(F)cc2)c(C#N)s1 [Compound S-0082, 2-(ethyl(2-ethyl-5-(4-(2-(3-hydroxyazetidin-1-yl)-2-oxoethyl)piperazin-1-yl)pyrazolo[1,5-a]pyrimidin-3-yl)amino)-4-(4-fluorophenyl)thiazole-5-carbonitrile]	0.02		
CCc1nn2ccc(N3CCN(CC(=O)N4CC(O)C4)C(=O)C3)nc2c1N(C)c1nc(-c2ccc(F)cc2)c(C#N)s1 [Compound S-0104CP, 2-((2-ethyl-5-(4-(2-(3-hydroxyazetidin-1-yl)-2-oxoethyl)-3-oxopiperazin-1-yl)pyrazolo[1,5-a]pyrimidin-3-yl)(methyl)amino)-4-(4-fluorophenyl)thiazole-5-carbonitrile]	0.256		
CCc1nn2ccc(N3CCN(CC(=O)N4CC(C)(O)C4)CC3)nc2c1N(C)c1nc(-c2ccc(F)cc2)c(C#N)s1 [Compound S-0120, 2-((2-ethyl-5-(4-(2-(3-hydroxy-3-methylazetidin-1-yl)-2-oxoethyl)piperazin-1-yl)pyrazolo[1,5-a]pyrimidin-3-yl)(methyl)amino)-4-(4-fluorophenyl)thiazole-5-carbonitrile]	0.041		
